Data reported in patent US9018242B2, “Salt form of tyrosine kinase inhibitor” (Jiangsu Simcere Pharmaceutical R&D Co., Ltd, priority 2011, dated 2015).

What was measured:
[1] = test system: human colon cancer HT-29 xenografts; assay: Therapeutic effect on human colon cancer HT-29 xenografts in nude mice; format: in vivo, BALB/cA-nude mice; conditions: 40 mg/kg (based on pharmaceutically active compound), gavage for 21 days, L-malate in pure water, active compound as suspension in 0.5% CMC
Description: Laboratory animal: BALB/cA-nude mice, 6-7 weeks, ♀
Dosage: 40 mg/kg (based on pharmaceutically active compound)
Formulation for L-malate: dissolving in pure water
(§1) Formulation for pharmaceutically active compound: suspension in CMC (carboxymethylcellulose), 0.5%
Nude mice were subcutaneously inoculated with human colon cancer HT-29 cells. After the tumor grew to a size of 150 to 250 mm^3, the animals were randomly divided into three groups (d0). The animals were continuously administered through gavage for 21 days, and the tumor volume was measured 2 to 3 times per week. The tumor volume (V) was calculated according to the equation: V=1/2×a×b^2, where a and b represent length and width respectively.
The relative proliferation of tumor=T/C(%)=(T−T0)/(C−C0)×100, where T and C are the tumor volumes at the end of experiment, T0 and C0 are the tumor volumes at the start of experiment; the tumor inhibition rate=1−T/C(%).

[2] = Hygroscopicity measurement (weight gain); format: physicochemical; conditions: 25±1° C., relative humidity 80±2%, 24 hours
Description: The method for measuring the hygroscopicity may include: placing a certain amount of a sample to be tested into a precisely weighed glass weighing bottle (m1) with a plug and precisely weighing (m2); placing the opened weighing bottle into a thermostatic dryer (with saturated ammonium sulfate solution placed at the bottom, with a relative humidity of 80±2%) at 25±1° C. for 24 hours; covering the weighing bottle with the plug and precisely weighing (m3), and calculating the percent of weight gain of the sample to be tested according to the following equation: […]
The measurement method includes: placing a certain amount of sample to be tested into a precisely weighed glass weighing bottle (m1) with a plug and precisely weighing (m2); placing the opened weighing bottle in a thermostated dryer (with saturated ammonium sulfate solution placed at the bottom, with a relative humidity of 80±2%) at 25±1° C. for 24 hours; covering the weighing bottle with the plug and precisely weighing (m3).
Characterization of the hygroscopicity and definition of the hygroscopic weight gain:
Deliquescence: sufficient moisture was absorbed to form liquid;
Slight hygroscopicity: hygroscopic weight gain was less than 2% and not less than 0.2%: […]

[3] = Solubility in water by HPLC; format: physicochemical; conditions: thermodynamic from solid; purified water, 25° C.
Description: Liquid chromatograph: Agilent 1200 HPLC system (diode array detector), ChemStation
Mobile phase: acetonitrile/water
Detection wavelength: 264 nm
About 100 mg sample to be tested was precisely weighed and placed into a 100 ml graduated flask at 25° C.; an appropriate amount of solvent [acetonitrile/water (80:20)] was added to dissolve the sample under ultrasonic sound, and the solution was diluted to a given scale and shaken up; 10 μl resulting solution was precisely measured and loaded into the liquid chromatograph, the chromatogram was recorded, and the peak area Scontrol was measured.
10 ml purified water was measured and placed into a 25 ml Kjeldahl flask. The sample to be tested was gradually added at 25° C. until an insoluble solid appeared in the solution. The solution was treated under ultrasonic sound for 30 min and the insoluble solid was filtered off. 10 μl filtrate was precisely weighed and loaded into the liquid chromatograph, the chromatogram was recorded, and the peak area Stest was measured.

[4] = Plasma exposure (AUC) in rats after gavage administration; format: in vivo; conditions: rat, po, male SD rats, 10 mg/kg (based on pharmaceutically active compound), salts dissolved in pure water, active compound as suspension in 0.5% CMC, up to 24 h
Description: Laboratory animal: male SD rats
Dosage: 10 mg/kg (based on pharmaceutically active compound)
Formulation for salts: dissolving in pure water
as §1
Animal Grouping and Testing Course:
Each group includes three male rats having a weight of 180 to 210 g. Gavage administration was performed; the blood was collected at point of time: 5 min, 15 min, 30 min, 45 min, 1 h, 2 h, 4 h, 6 h, 10 h and 24 h; about 250 μl blood was collected from orbital venous plexus into a heparin-containing tube, centrifuged, and 100 μl plasma was used for LC-MS analysis.

CCN(CC)CCNC(=O)c1c(C)[nH]c2c1CCC/C2=C1/C(=O)Nc2ccc(F)cc21.O=C(O)C[C@H](O)C(=O)O [L-malate, (Z)—N-[2-(diethylamino)ethyl]-2-methyl-7-(1,2-dihydro-5-fluoro-2-oxo-3H-indol-3-ylidene)-4,5,6,7-tetrahydro-1H-indol-3-carboxamide L-malate]
Tumor Inhibition Rate [1]: 54%
Hygroscopicity [2]: Almost no hygroscopicity
solubility at 30 min [3]: 38.6 mg/mL
AUC(0-t) [4]: 1490 ng·h/mL
